Assay results as given in patent US20230217926A1, “SELECTIVE HERBICIDES BASED ON SUBSTITUTED ISOXAZOLIN CARBOXAMIDES AND ISOXADIFEN-ETHYL” (BAYER AKTIENGESELLSCHAFT, priority 2020, published 2023).

Tests used:
Assay type in all cases: in vivo, maize
ZEAMA Abraxas = assay: Tank-mix post-emergence crop damage, greenhouse, visual assessment; design: key to Reduction [Difference]: % injury reduction: damage without minus with safener (0–100% scale); conditions: for HER effect + SAF / Reduction [%] / Reduction [Difference]: Final; for HER effect: no safener, Final assessment
Method: (§1) Seeds of crops (spring wheat, TRZAS; spring barley, HORVS; maize, ZEAMA) were placed in sandy loam soil in peat pots, covered with soil and cultivated in a greenhouse under good growth conditions. Two to three weeks after sowing, the test plants were treated at the 1 to 3-leaf stage. The herbicide/safener active compound combinations according to the invention, formulated as wettable powders or emulsion concentrates, and, in parallel tests, the correspondingly formulated individual active compounds were sprayed onto the green parts of the plants in various dosages using an amount of water of 300 l/ha (converted).
(§2) The pots were returned under good growing conditions in a glasshouse and a visual assessment of herbicidal effects was made at intervals from 1 to 3 weeks after herbicide application (DAT=days after treatment). Assessment was on a percentage basis in comparison with untreated control plants (0%=no injury, 100%=complete kill).
(§3) Reduction[Difference]=herbicide damage without safener−herbicide damage with safener Reduction[%]=(Reduction[Difference]*100)/herbicide damage without safener
b) Plant Species, Variety: ZEAMA Abraxas, Safener (SAF): Isoxadifen-Ethyl

ZEAMA Sileno [1] = assay: Safener seed treatment, pre-emergence herbicide, crop damage; design: key to Reduction [Difference]: % crop damage without safener minus % damage with safener; conditions: for Reduction [%] / Reduction [Difference]: isoxadifen-ethyl 0.25 g a.i./kg seed; for HER effect + SAF: isoxadifen-ethyl seed treatment 0.25 g a.i./kg seed; for HER effect: no safener
Method: For the safener seed treatment, sufficient seeds of the respective crops (spring wheat, TRZAS; spring barley, HORVS; maize, ZEAMA) were weighed into screw top glass bottles approximately twice the volume of the seeds.
The specified safeners, formulated as wettable powder (WP) were weighed out so that the specified rates (g a.i./kg seed) would be obtained, dissolved in water (1 ml water per 10 g of seeds), and added to the seeds to produce a slurry.
The bottles were capped and then placed in an overhead shaker (set at medium speed for ca. 60 minutes) so that the seeds were evenly coated with the slurry. The bottles were uncapped and the seeds were either placed on paper and dried for an interval of 3-4 hours prior to sowing, or directly sown. Seeds were placed in sandy loam soil in pots of a diameter of 7-8 cm, and covered with soil.
Pre-emergence application of the specified herbicides was done subsequently, on two sets of plants: a) seed treatment with safener, as described above
The herbicides were formulated as WP and was sprayed onto the soil surface as an aqueous suspension at an equivalent water application rate of 300 l/ha.
After application, the test plants were kept in the greenhouse under good growth conditions. At intervals up to 4 weeks after application (=28 days after treatment; DAT), % crop damage observed on the treated plants was scored visually in comparison to control plants that had not received any safener or herbicide treatment.
Values in the table below are mean values of at least 2 replicates.
Reduction[Difference]=herbicide damage without safener−herbicide damage with safener Reduction[%]=(Reduction[Difference]*100)/herbicide damage without safener […]
c) Plant Species, Variety: ZEAMA Sileno, Safener (SAF): Isoxadifen-Ethyl

ZEAMA Sileno [2] = assay: Tank-mix post-emergence crop damage, greenhouse, visual assessment; design: key to Reduction [Difference]: % points: herbicide damage without safener − damage with safener; conditions: for HER effect + SAF / Reduction [%] / Reduction [Difference]: Final; for HER effect: no safener, Final assessment
Method: as §1, §2, §3
a) Plant Species, Variety: ZEAMA Sileno, Safener (SAF): Isoxadifen-Ethyl

[3] = HER 8 g a.i./ha + isoxadifen-ethyl 50 g a.i./ha
[4] = HER 8 g a.i./ha, isoxadifen-ethyl 50 g a.i./ha
[5] = HER 2 g a.i./ha, isoxadifen-ethyl 100 g a.i./ha
[6] = HER 32 g a.i./ha + isoxadifen-ethyl 100 g a.i./ha
[7] = HER 32 g a.i./ha, isoxadifen-ethyl 100 g a.i./ha
[8] = HER 40 g a.i./ha pre-emergence, 14 DAT
[9] = HER 40 g a.i./ha pre-emergence, 26 DAT
[10] = HER 80 g a.i./ha pre-emergence, 14 DAT

## C=CC1(C(=O)NC2COC(C(=O)OCc3ccc(OC)cc3)C2)CC(c2cc(C)cc(F)c2)=NO1 (mixture of isomers) [Example 1.86]
ZEAMA Abraxas; [3]
  HER effect + SAF: 12%
ZEAMA Abraxas; [4]
  Reduction [%]: 63%
  Reduction [Difference]: 20
ZEAMA Abraxas; HER 8 g a.i./ha
  HER effect: 32%

## CC1(C(=O)NC2COC(C(=O)OCc3cccc(F)c3)C2)CC(c2cc(F)cc(F)c2)=NO1 (mixture of isomers) [Example 1.76]
ZEAMA Abraxas; [3]
  HER effect + SAF: 33%
ZEAMA Abraxas; [4]
  Reduction [%]: 63%
  Reduction [Difference]: 57
ZEAMA Abraxas; HER 8 g a.i./ha
  HER effect: 90%

## C=CC1(C(=O)NC2C=C(C(=O)OC)OC2)CC(c2cc(C)cc(C)c2)=NO1 (centres unmarked) [Example 1.90]
ZEAMA Abraxas; HER 2 g a.i./ha + isoxadifen-ethyl 100 g a.i./ha
  HER effect + SAF: 5%
ZEAMA Abraxas; [5]
  Reduction [%]: 80%
  Reduction [Difference]: 20
ZEAMA Abraxas; HER 2 g a.i./ha
  HER effect: 25%

## CC1(C(=O)NC2C=CC(C(=O)OCCCl)C2)CC(c2cc(F)cc(F)c2)=NO1 (mixture of isomers) [Example 1.47]
ZEAMA Abraxas; [6]
  HER effect + SAF: 38%
ZEAMA Abraxas; [7]
  Reduction [%]: 39%
  Reduction [Difference]: 24
ZEAMA Abraxas; HER 32 g a.i./ha
  HER effect: 62%

## C=CC1(C(=O)NC2C=CC(C(=O)O)C2)CC(c2cc(F)cc(F)c2)=NO1 (centres unmarked) [Example 1.58]
ZEAMA Abraxas; [3]
  HER effect + SAF: 17%
ZEAMA Abraxas; [4]
  Reduction [%]: 73%
  Reduction [Difference]: 45
ZEAMA Abraxas; HER 8 g a.i./ha
  HER effect: 62%
ZEAMA Abraxas; [6]
  HER effect + SAF: 15%
ZEAMA Abraxas; [7]
  Reduction [%]: 84%
  Reduction [Difference]: 80
ZEAMA Abraxas; HER 32 g a.i./ha
  HER effect: 95%

## C=CC1(C(=O)NC2CC=C(C(=O)OC)C2)CC(c2cc(F)cc(F)c2)=NO1 (mixture of isomers) [Example 1.60]
ZEAMA Abraxas; [3]
  HER effect + SAF: 20%
ZEAMA Abraxas; [4]
  Reduction [%]: 64%
  Reduction [Difference]: 35
ZEAMA Abraxas; HER 8 g a.i./ha
  HER effect: 55%
ZEAMA Abraxas; [6]
  HER effect + SAF: 57%
ZEAMA Abraxas; [7]
  Reduction [%]: 39%
  Reduction [Difference]: 37
ZEAMA Abraxas; HER 32 g a.i./ha
  HER effect: 94%

## COC(=O)C1OCCC1NC(=O)C1(C)CC(c2cc(F)cc(F)c2)=NO1 (centres unmarked) [Example 1.92]
ZEAMA Sileno [1]; [8]
  Reduction [%]: 93%
  Reduction [Difference]: 70
  HER effect + SAF: 5%
  HER effect: 75%
ZEAMA Sileno [1]; [9]
  Reduction [%]: 86%
  Reduction [Difference]: 60
  HER effect + SAF: 10%
  HER effect: 70%
ZEAMA Sileno [2]; [3]
  HER effect + SAF: 42%
ZEAMA Sileno [2]; [4]
  Reduction [%]: 56%
  Reduction [Difference]: 53
ZEAMA Sileno [2]; HER 8 g a.i./ha
  HER effect: 95%
ZEAMA Sileno [2]; [6]
  HER effect + SAF: 38%
ZEAMA Sileno [2]; [7]
  Reduction [%]: 61%
  Reduction [Difference]: 59
ZEAMA Sileno [2]; HER 32 g a.i./ha
  HER effect: 97%

## CCOC(=O)C1C=CC(NC(=O)C2(C(F)(F)F)CC(c3ccccc3)=NO2)C1 (centres unmarked) [Example 1.9]
ZEAMA Sileno [1]; [10]
  Reduction [%]: 83%
  Reduction [Difference]: 25
  HER effect + SAF: 5%
  HER effect: 30%
ZEAMA Sileno [2]; [3]
  HER effect + SAF: 22%
ZEAMA Sileno [2]; [4]
  Reduction [%]: 72%
  Reduction [Difference]: 56
ZEAMA Sileno [2]; HER 8 g a.i./ha
  HER effect: 78%
ZEAMA Sileno [2]; [6]
  HER effect + SAF: 22%
ZEAMA Sileno [2]; [7]
  Reduction [%]: 74%
  Reduction [Difference]: 63
ZEAMA Sileno [2]; HER 32 g a.i./ha
  HER effect: 85%

## COCCOC(=O)C1C=CC(NC(=O)C2(C(F)(F)F)CC(c3cc(F)cc(C#N)c3)=NO2)C1 (centres unmarked) [Example 1.2]
ZEAMA Sileno [1]; [10]
  Reduction [%]: 78%
  Reduction [Difference]: 35
  HER effect + SAF: 10%
  HER effect: 45%
ZEAMA Sileno [2]; [3]
  HER effect + SAF: 65%
ZEAMA Sileno [2]; [4]
  Reduction [%]: 28%
  Reduction [Difference]: 25
ZEAMA Sileno [2]; HER 8 g a.i./ha
  HER effect: 90%
ZEAMA Sileno [2]; [6]
  HER effect + SAF: 75%
ZEAMA Sileno [2]; [7]
  Reduction [%]: 22%
  Reduction [Difference]: 21
ZEAMA Sileno [2]; HER 32 g a.i./ha
  HER effect: 96%

## C=CC1(C(=O)NC2C=C(C(=O)OCCOC)OC2)CC(c2cc(C)cc(F)c2)=NO1 (centres unmarked) [Example 1.89]
ZEAMA Abraxas; [3]
  HER effect + SAF: 3%
ZEAMA Abraxas; [4]
  Reduction [%]: 90%
  Reduction [Difference]: 27
ZEAMA Abraxas; HER 8 g a.i./ha
  HER effect: 30%
ZEAMA Abraxas; [6]
  HER effect + SAF: 17%
ZEAMA Abraxas; [7]
  Reduction [%]: 62%
  Reduction [Difference]: 28
ZEAMA Abraxas; HER 32 g a.i./ha
  HER effect: 45%

## COC(=O)C1C=CC(NC(=O)C2(C(F)(F)F)CC(c3cc(C)cc(F)c3)=NO2)C1 (mixture of isomers) [Example 1.22]
ZEAMA Abraxas; [6]
  HER effect + SAF: 0%
ZEAMA Abraxas; [7]
  Reduction [%]: 100%
  Reduction [Difference]: 20
ZEAMA Abraxas; HER 32 g a.i./ha
  HER effect: 20%

## C=CC1(C(=O)NC2COC(C(=O)OC)C2)CC(c2cc(C)cc(F)c2)=NO1 (mixture of isomers) [Example 1.71]
ZEAMA Abraxas; [3]
  HER effect + SAF: 17%
ZEAMA Abraxas; [4]
  Reduction [%]: 71%
  Reduction [Difference]: 41
ZEAMA Abraxas; HER 8 g a.i./ha
  HER effect: 58%
ZEAMA Abraxas; [6]
  HER effect + SAF: 35%
ZEAMA Abraxas; [7]
  Reduction [%]: 62%
  Reduction [Difference]: 56
ZEAMA Abraxas; HER 32 g a.i./ha
  HER effect: 91%

## COC(=O)C1=CC(NC(=O)C2(C)CC(c3cc(F)cc(F)c3)=NO2)CC1 (centres unmarked) [Example 1.63]
ZEAMA Sileno [1]; [8]
  Reduction [%]: 50%
  Reduction [Difference]: 30
  HER effect + SAF: 30%
  HER effect: 60%
ZEAMA Sileno [1]; [9]
  Reduction [%]: 100%
  Reduction [Difference]: 25
  HER effect + SAF: 0%
  HER effect: 25%
ZEAMA Sileno [2]; [3]
  HER effect + SAF: 40%
ZEAMA Sileno [2]; [4]
  Reduction [%]: 53%
  Reduction [Difference]: 45
ZEAMA Sileno [2]; HER 8 g a.i./ha
  HER effect: 85%
ZEAMA Sileno [2]; [6]
  HER effect + SAF: 43%
ZEAMA Sileno [2]; [7]
  Reduction [%]: 51%
  Reduction [Difference]: 45
ZEAMA Sileno [2]; HER 32 g a.i./ha
  HER effect: 88%

## COCCOC(=O)C1C=CC(NC(=O)C2(CCl)CC(c3cc(F)cc(F)c3)=NO2)C1 (centres unmarked) [Example 1.1]
ZEAMA Abraxas; [3]
  HER effect + SAF: 20%
ZEAMA Abraxas; [4]
  Reduction [%]: 78%
  Reduction [Difference]: 73
ZEAMA Abraxas; HER 8 g a.i./ha
  HER effect: 93%
ZEAMA Abraxas; [6]
  HER effect + SAF: 45%
ZEAMA Abraxas; [7]
  Reduction [%]: 53%
  Reduction [Difference]: 50
ZEAMA Abraxas; HER 32 g a.i./ha
  HER effect: 95%
